# Assay results published in US20020025508A1, “Process for finding a protease inhibitor” (priority 2000, published 2002).
# Residues, ends and D or L forms follow the SMILES beside them. *: point of attachment. Cbz = O=C(OCc1ccccc1)*
# Columns and labels:
# Type in all cases: cell-based, human
# [1] = test system: HTS test cell lines Aβ-KKK-ER/59 and Aβ-KKK/52 (H4 cells); assay: Alamar Blue vitality (cytotoxicity) test; conditions: clones Aβ-KKK-ER/59 and Aβ-KKK/52, entire range of concentrations, parallel to luciferase test
# Description: A possible toxic effect of the BFA (in different concentrations) on the cells was investigated using an Alamar Blue test (see below) which was carried out in parallel to the luciferase test.
# Alamar Blue (Messrs. Biosource International, VE=100 ml, Cat.No. DAL 1100 (AL-01 -100)) was sterile-filtered. The seeding of the cells and substance incubation were carried out as in Example 1.
# The Alamar blue incubation was carried out parallel to the luciferase test.
# Alamar blue was diluted to 5% with whole medium (DMEM m 4.5 g/l glucose+10% FCS+1% glutamine+1% Pen/Strep). The medium was suction filtered. The cells were washed once with medium or PBS. One hundred microliters of (5%) Alamar blue were added (96 well plate) and a plate was incubated for 1 hour in the incubator at 37° C. and in 5% CO2. Fluorimetric measurement was carried out at an input wavelength of 544 nm, an emission wavelength of 590 nm and a measuring time of 0.3 s/well. The results are given as a percentage of the control.
# [2] = test system: γ-secretase; assay: γ-secretase HTS luciferase reporter assay (Aβ-KKK/Gal4 substrate, SteadyGlo); conditions: different concentrations; for inhibition of Aβ formation (luciferase signal): cell clones Aβ-KKK-ER/40, 59, 65 and Aβ-KKK/52 (also Aβ-KKK/40 for substance B), overnight
# Excerpt: H4 neuroglioma cells (Accession Number HTB 148 at the American Type Culture Collection, Manassas, Va., USA) were stably transfected under standard conditions with the reporter construct pFRLuc (Stratagene) which carries the gene for luciferase which is under the control of a promoter containing the Gal4 DNA binding domain. […] In order to prepare the Aβ-KKK/Gal4 construct, a sequence which contained the N-terminal signal sequence of APP and the first 55 amino acids of Aβ (Shoji, M. et al., Science, 1992; 158:126-129) was attached to the Gal4 coding sequence (Laughan, A. and Gesteland, R., Molec. Cell Biol., 1984, 4:260-267) by genetic engineering methods and cloned into the expression vector pcDNA3neo (Invitrogen). This construct was designated Aβ-KKK/Gal4. In order to insert an ER-retention signal in the substrate of the γ-secretase, the last nucleotides of the Gal4 were modified by genetic engineering methods so that they coded for amino acids KKLI. This construct was named Aβ-KKK-ER/Gal4. The cell clone obtained as described above was used for the second stable transfection with pcDNA3/Aβ-KKK/Gal4 or pcDNA3/Aβ-KKK-ER/Gal4 and the selection was carried out with neomycin under standard conditions (Sambrook and Maniatis, Molecular Cloning: A Laboratory Manual, Cold Spring Harbor Laboratory, Cold Spring Harbor, N.Y., 1989). Individual neomycin-resistant cell clones were tested for expression of luciferase. The clones with the highest expression were used for the substance analyses. All the transfections were carried out using the Fugene transfection system of Boehringer Mannheim in accordance with the manufacturer's instructions.
# The doubly stable HTS cell line is seeded onto a 96/384 microtitre plate. When the cells achieved confluence they are incubated with the test substance in question for a specified length of time.
# By the presence of an endogenous or exogenous γ-secretase activity in the H4 cells, the substrate (Aβ-KKK/Gal4) is cleaved proteolytically, whereupon the transactivator Gal4 can detach itself from the membrane and enter the cell nucleus. In the cell nucleus, Gal4 binds to the Gal4 DNA binding domain of the reporter construct and thus activates the expression of the luciferase. When a specific γ-secretase inhibitor is present the substrate cannot be cleaved and Gal4 remains bound to the substrate on the cell membrane, leading to a reduction and even total inhibition of the luciferase activity.
# Cells are seeded onto 96/[…] well plates in DMEM whole medium (10% FCS, 1% glutamine, 1% penicillin/streptomycin) in a dilution of 1:5. […] Then, the luminescence is measured. […]
# [3] = test system: Aβ40 and Aβ42 secreted by U373/APP751 cell line; assay: ELISA of extracellular Aβ40 and Aβ42 secreted by U373/APP751 cells
# Description: Substance A was also active in a cellular test system in which the extracellular content of Aβ40 and Aβ42 secreted by the U373 cell line (U373: ATCC No. HTB 14) was determined. This cell line, U373/APP751, is an astrocytoma cell line which overexpresses human APP751 and secretes large amounts of Aβ40 (about 1000 pg/ml/4 hours with 5×10^7 cells in 15 ml of medium) and Aβ42 (about 1000 pg/ml/4 hours with 5×10^7 cells in 15 ml of medium). The measurement is carried out by ELISA (Steiner, H. et al., J. Biol. Chem, 1998, 273:32322-32331).
Structure (SMILES),loss of vitality (toxic effect on the cells) [1],"BFA effect on luciferase signal ([2]; cell clone Aβ-KKK/52 (without ER retention signal), 6 hours)",Aβ40 secretion [3],Aβ42 secretion [3],inhibition of Aβ formation (luciferase signal) [2]
"C[C@H]1CCC/C=C/[C@@H]2C[C@H](O)C[C@H]2[C@H](O)/C=C/C(=O)O1 [BFA, Brefeldin A, reference compound]",No loss of vitality,clear BFA effect could be seen,,,
CCCCNC(=O)[C@@H](C[C@H](O)[C@H](CC1CCCCC1)NCCCC(C)C)C(C)C [Substance A],,,greatly reduced in concentration-dependent manner,increased at sub-inhibitory doses and then also inhibited at higher doses,inhibits Aβ formation in a manner dependent on concentration
CC(C)C(NC(=O)OCc1ccccc1)C(=O)NC(C=O)Cc1ccccc1 (stereo not drawn) [Substance B] (Cbz-Val-Phe-aldehyde; configuration not given here),,,,,does not inhibit Aβ formation in concentration-dependent manner
Cc1nccn1Cc1ccccn1 [Substance C],,,,,does not inhibit Aβ formation in concentration-dependent manner
